These results are taken from patent US8999983B2, “Modulators of Hec1 activity and methods therefor” (Taivex Therapeutics Corporation, priority 2011, dated 2015).

Structures are written as SMILES.

One experiment addresses T1, hERG potassium channels (Homo sapiens, UniProt Q12809).
T1 construct: purchased PerkinElmer
Nature of the experiment: [3H]Astemizole competitive binding assay, hERG. To be noted: [3H]-astemizole displacement, hERG membrane protein. On the procedure: Here, [3H] Astemizole competitive binding assays were performed to determine the ability of compounds to displace the known radioligand [3H]-astemizole from the hERG potassium channels, following standard protocol with minor modifications. In brief, assays were performed in 200 μl of binding buffer (50 mM HEPES, pH 7.4, 60 mM KCl, and 0.1% BSA) containing 1.5 nM of [3H]astemizole, 3 μg/well of hERG membrane protein (PerkinElmer), and TAI-1 (in 1% DMSO final concentration) at 27° C. for 60 min. Nonspecific binding (NSB) was determined in the presence of 10 μM astemizole. […] Binding was terminated by rapid filtration onto polyethyleneimine-presoaked, buffer-washed UniFilter-96, GF/C (Perkin Elmer) using a vacuum manifold (Porvair Sciences). Captured radiolabel signal was detected using TopCount NXT (Perkin Elmer). […] All results are derived from two independent experiments.
In general terms: Block of hERG is tested as a sign of cardiac risk.

The next experiment deals with MDA-MB-468. Nature of the experiment: Antiproliferation assay (MTS), MDA-MB-468 cells. The format is cell-based. To be noted: Homo sapiens, MDA-MB-468, 96 h, Table 1, read-out: Antiproliferative IC50 MDA-MB-468. In a few lines: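 Cells seeded after overnight attachment were treated in triplicate for 96 h at 37 °C, 5% CO2, final DMSO below 1%. Viability read by MTS absorbance; concentration-response curves fitted by linear regression against DMSO controls.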

A further experiment concerns Huh-7 xenograft. Nature of the experiment: Mouse xenograft study, Huh-7 liver cancer. The format is in vivo. The following applies: Huh-7 liver cancer xenograft, nude mice.
The next experiment relates to BT474 xenograft. Nature of the experiment: Mouse xenograft study, BT474 breast cancer. It counts as in vivo, nude mice. Here is the method:
Mouse Xenograft Studies: Xenograft studies adapted from a previous published protocol (Wu et al, Cancer Res. 2008 Oct. 15; 68(20):8393-9). Female BALB/c nude (nu/nu) mice (5-8 weeks) were obtained from Lasco (Industrial Park, Tai-Ping Area, Taichung City, Taiwan). The animals were maintained under specific pathogen-free conditions, and food and water were supplied ad libitum. Housing and all procedures involving animals were performed according to protocols approved by the IACUC in DCB. Nude mice were inoculated with 17-β-estradiol pellets 72 to 96 h before implantation of BT-474 cells. For subcutaneous implantation of BT-474 cells, cells (1×10^7 in matrix gel/animal) were injected subcutaneously into the right subaxillary region. Treatment started when average tumor volume reached about 200 mm^3; mice were treated (p.o., QD/28 cycles in total) with vehicle A (0.5% methylcellulose), or candidate compounds formulated in vehicle A (10-50 mg/kg body weight). Perpendicular diameter measurement of each tumor were made with digital calipers and the volume of the tumor calculated using formula (L×W×W)/2, in which L and W represent the length and the width, respectively. Body weights were measured three times weekly.
The in vivo effectiveness of contemplated compounds in the reduction of tumor volume in nude mice is readily apparent.
Development of resistance to treatment in advanced stage tumors is a well known phenomenon. Activity of select Hec1 inhibitor in such late stage tumors was determined by re-dosing of BT474 xenografted animals that had previously subjected to 35 days of treatment with 110095 (compound 27 of Table 1). Re-treatment with 110095 was starting on day 42 and continued for 21 days.

Another experiment concerns Nek2 protein. Nature of the experiment: Immunoblot of Nek2 protein level in K562 cells. The format is cell-based. The following applies: 1 μM, up to 24 hrs. On the procedure: Immunoblot Analysis: For immunoblotting experiments, cells were plated in a 6-well culture plate and cultured overnight. Cells were incubated with the test compounds for the indicated time and whole cell lysate was harvested by adding 1×SDS-PAGE Sample Buffer (62.5 mM Tris-HCl (pH 6.8 at 25° C.), 2% w/v SDS, 10% glycerol, 50 mM DTT, and 0.01% w/v bromophenol blue or phenol red). Proteins were separated by SDS-PAGE electrophoresis and transferred to PVDF membrane. Protein expression was immunoblotted using various primary antibodies and detected using Immobilon Western Chemiluminescent HRP Substrate (Millipore, Billerica Mass. 01821 USA). Antibodies used include anti-Cleaved Caspase3, (Rabbit, Cell Signaling Technology, Danvers Mass. 01923 USA); anti-PARP (Rabbit, Cell Signaling Technology, Danvers Mass. 01923 USA); anti-MCL-1 (mouse, BD Biosciences, San Jose Calif. 95131 USA); anti-XIAP (rabbit, Cell Signaling Technology, Danvers Mass. 01923 USA); anti-Bcl-2 (mouse, Santa Cruz Biotechnology, Santa Cruz Calif. 95060); anti-Cyclin BI (mouse, BD Biosciences, San Jose Calif. 95131 USA); anti-Cyclin D1 (mouse, Santa Cruz Biotechnology, Santa Cruz Calif. 95060); Anti-Nek2 (mouse, BD Biosciences, San Jose Calif. 95131 USA); Anti-HEC1, (rabbit, GeneTex, Inc., Irvine Calif. 92606 USA); and anti-actin (mouse, Millipore, Billerica Mass. 01821 USA). […]
For orientation: In western blotting, separated proteins are transferred to a membrane and probed.

T1 sequence (Q12809 whole entry): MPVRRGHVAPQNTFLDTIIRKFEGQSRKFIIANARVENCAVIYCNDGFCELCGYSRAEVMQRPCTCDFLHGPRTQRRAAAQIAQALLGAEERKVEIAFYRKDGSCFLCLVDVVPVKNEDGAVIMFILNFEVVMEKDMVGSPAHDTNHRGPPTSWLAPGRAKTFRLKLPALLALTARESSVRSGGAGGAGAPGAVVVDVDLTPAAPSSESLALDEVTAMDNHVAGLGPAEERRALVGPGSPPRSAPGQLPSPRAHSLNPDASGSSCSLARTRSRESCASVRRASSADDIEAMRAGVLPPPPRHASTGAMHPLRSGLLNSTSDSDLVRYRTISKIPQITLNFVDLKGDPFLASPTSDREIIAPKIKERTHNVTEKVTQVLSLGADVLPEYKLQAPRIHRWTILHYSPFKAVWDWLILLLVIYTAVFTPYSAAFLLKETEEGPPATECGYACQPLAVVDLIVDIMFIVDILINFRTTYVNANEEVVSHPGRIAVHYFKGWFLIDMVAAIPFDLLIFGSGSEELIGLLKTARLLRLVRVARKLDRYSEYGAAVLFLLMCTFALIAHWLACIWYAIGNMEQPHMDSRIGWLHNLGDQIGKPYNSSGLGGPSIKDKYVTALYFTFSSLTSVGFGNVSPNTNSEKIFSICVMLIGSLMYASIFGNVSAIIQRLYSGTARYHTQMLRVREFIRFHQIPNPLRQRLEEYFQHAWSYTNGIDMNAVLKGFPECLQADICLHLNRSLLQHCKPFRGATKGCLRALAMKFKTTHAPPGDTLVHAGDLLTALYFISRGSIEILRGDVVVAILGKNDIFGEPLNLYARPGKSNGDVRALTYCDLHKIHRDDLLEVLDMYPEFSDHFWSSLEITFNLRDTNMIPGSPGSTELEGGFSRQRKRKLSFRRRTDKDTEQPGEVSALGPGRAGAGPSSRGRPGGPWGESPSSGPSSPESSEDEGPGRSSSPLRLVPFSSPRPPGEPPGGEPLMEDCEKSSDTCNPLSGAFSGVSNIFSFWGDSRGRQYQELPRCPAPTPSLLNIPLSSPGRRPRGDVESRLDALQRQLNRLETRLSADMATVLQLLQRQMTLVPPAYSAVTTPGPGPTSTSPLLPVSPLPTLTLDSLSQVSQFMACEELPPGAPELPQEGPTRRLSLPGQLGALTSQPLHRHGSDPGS

With `COCCOc1cnc(Sc2cc(C)c(-c3csc(NC(=O)c4ccncc4)n3)c(C)c2)cn1` [Compound 27, N-(4-{4-(5-(2-methoxyethoxy)pyrazin-2-ylthio)-2,6-dimethylphenyl}thiazol-2-yl)isonicotinamide], the concentration for half-maximal inhibition (IC50) at hERG potassium channels is over 10000 nM; with MDA-MB-468, 19.1 nM. Also, the xenograft tumor outgrowth result with Huh-7 xenograft is given as “inhibition of xenograft tumor outgrowth”; with BT474 xenograft (BT474 breast cancer xenograft, nude mice) it was “inhibition of xenograft tumor outgrowth”. The “activity in late stage tumors on re-treatment” value in the experiment with BT474 xenograft (BT474 xenografted animals after 35 days of treatment, re-treatment from day 42 for 21 days) is “remained effective with late stage tumors”. In the experiment with Nek2 protein, the Nek2 protein level entry was “induced a reduction of Nek2 protein levels”.

As usually defined, the IC50 is the midpoint of a concentration-inhibition curve.
